Experimental data from patent publication US20210007356A1, “IMIDE DERIVATIVE AND FUNGICIDE CONTAINING SAID DERIVATIVE AS ACTIVE INGREDIENT” (HOKKO CHEMICAL INDUSTRY CO., LTD., priority 2018, published 2021).
Like-named read-outs stand apart in the source and are kept apart here.

Experiments:
[1] = test system: barley powdery mildew fungus (Erysiphe graminis); assay: Test Example 2: control effect against barley powdery mildew by foliage application; format: in vivo; conditions: wettable powder diluted to 100 ppm, 10 mL per pot foliage spray on barley; inoculated day after; 7 days after inoculation
[2] = test system: rice blast fungus (Pyricularia grisea); format: in vivo; conditions: flowable 5,000 ppm, 50 mL irrigation of nursery box, paddy rice; inoculated after 3 weeks; 7 days after inoculation
[3] = test system: rice blast fungus (Pyricularia grisea); format: in vivo; conditions: 5 g of granule on nursery box, paddy rice; inoculated after 3 weeks; 7 days after inoculation
[4] = test system: rice blast fungus (Pyricularia grisea); format: in vivo; conditions: flowable 1,000 ppm, 1 mL dripped in paddy water, inoculated after 1 week, 7 days after inoculation
[5] = test system: rice sheath blight fungus (Thanatephorus cucumeris); assay: Test Example 8: control effect against rice sheath blight by box treatment (granule); conditions: 5 g of granule on nursery box, paddy rice; inoculated after 3 weeks; 7 days after inoculation
[6] = test system: rice sheath blight fungus (Thanatephorus cucumeris); assay: Test Example 6: control effect against rice sheath blight by box treatment (flowable formulation); conditions: flowable 5,000 ppm, 50 mL irrigation of nursery box, paddy rice; inoculated after 3 weeks; 7 days after inoculation
Experimental: (§1) Control value (%)=[1−(lesion height in sprayed plot/lesion height in unsprayed plot)]×100 (d)
By irrigation, 50 mL of a diluted solution (5,000 ppm) of a flowable prepared according to Formulation Example-3 was applied to a 2.5-leaf-stage paddy rice (variety: Asahi) seedling raised using a nursery box ( 1/10 the area of standard nursery box in size: 12 cm×15 cm×height 4 cm) within a greenhouse. The formulation-treated paddy rice seedling was immediately transplanted at 5 seedlings/pot into a pot ( 1/10000 are in size) filled with paddy soil (flooded). After growing for 3 weeks within a greenhouse, a culture of rice sheath blight fungus (Thanatephorus cucumeris) grown in advance on a rice straw medium was inoculated into the root of the formulation-treated paddy rice, and disease development was promoted in an artificial weather chamber at 26° C. (relative humidity=100%). Seven days after the inoculation, the rice sheath blight lesion height (height from the root) was examined, and the control value (%) was calculated according to formula (d). […] This test was performed with three replications, each consisting of one plot and one pot, per one formulation plot, and its average evaluation value of control effect was determined.

[7] = test system: rice sheath blight fungus (Thanatephorus cucumeris); assay: Test Example 10: control effect against rice sheath blight by water surface application (flowable formulation); conditions: flowable 1,000 ppm, 1 mL dripped in paddy water, inoculated after 1 week, 7 days after inoculation
Experimental: as §1
By dripping treatment in paddy water, 1 mL of a diluted solution (1,000 ppm) of a flowable prepared according to Formulation Example-3 was applied to a 5-leaf-stage paddy rice (variety: Asahi) seedling (5 seedlings/stub, one stub/pot) grown in a pot ( 1/10000 are in size) filled with paddy soil (flooded) within a greenhouse. After growing for 1 week within a greenhouse, a culture of rice sheath blight fungus (Thanatephorus cucumeris) grown in advance on a rice straw medium was inoculated into the root of the formulation-treated paddy rice, and disease development was promoted in an artificial weather chamber at 26° C. (relative humidity=100%). Seven days after the inoculation, the rice sheath blight lesion height (height from the root) was examined, and the control value (%) was calculated according to formula (d). […] This test was performed with three replications, each consisting of one plot and one pot, per one formulation plot, and its average evaluation value of control effect was determined.

SMILES	evaluation value of control effect (from control value, lesion area percentage) [1]	evaluation value of control effect (from control value, number of lesions) [2]	evaluation value of control effect (from control value, number of lesions) [3]	evaluation value of control effect (from control value, number of lesions) [4]	evaluation value of control effect (from control value, lesion height) [5]	evaluation value of control effect (from control value, lesion height) [6]	evaluation value of control effect (from control value, lesion height) [7]
CC(C)CCc1ccccc1N(C(=O)c1cn(C)nc1C(F)F)C(=O)c1snc(Cl)c1Cl [1-34]	4	5	5	5	5	5	5
Cc1cc(C(=O)N(C(=O)c2cn(C)nc2C(F)F)c2ccccc2C(C)CC(C)C)sn1 (centres unmarked) [1-136]	4	5	5	5	5	5	5
Cc1nnsc1C(=O)N(C(=O)c1cn(C)nc1C(F)F)c1ccccc1CCC(C)C [1-145]	5	5	5	5	5	5	5
Cc1nn(C)c(F)c1C(=O)N(C(=O)c1snnc1C(F)F)c1ccccc1C(C)CC(C)C (centres unmarked) [1-258]	4	5	5	5	5	5	5
Cc1nc(C(F)F)c(C(=O)N(C(=O)c2cn(C)nc2C(F)F)c2ccccc2C(C)CC(C)C)s1 (centres unmarked) [1-314]	4	5	5	5	5	5	5
CC(C)CC(C)c1ccccc1N(C(=O)c1cn(C)nc1C(F)F)C(=O)c1scnc1C(F)(F)F (centres unmarked) [1-333]	4	5	5	5	5	5	5
CC(C)CC(C)c1ccccc1N(C(=O)c1cn(C)nc1C(F)F)C(=O)c1scnc1C(F)F (centres unmarked) [1-341]	4	5	5	5	5	5	5
CC(C)CC(C)c1ccccc1N(C(=O)c1cc(Cl)c(Cl)s1)C(=O)c1cn(C)nc1C(F)F (centres unmarked) [1-359]	4	5	5	5	5	5	5
Cn1cc(C(=O)N(C(=O)c2cc(Cl)nc(Cl)c2)c2ccccc2-c2cc(F)c(F)c(F)c2)c(C(F)F)n1 [1-375]	4	5	5	5	5	5	5
CC(C)CC(C)c1ccccc1N(C(=O)c1cc(F)nc(F)c1)C(=O)c1cn(C)nc1C(F)F (centres unmarked) [1-380]	5	5	5	5	5	5	5
Cc1nc(C(F)F)c(C(=O)N(C(=O)c2snc(Cl)c2Cl)c2ccccc2CCC(C)C)s1 [7-37]	4	5	5	5	5	5	5
Cc1nc(C(F)F)c(C(=O)N(C(=O)c2snc(Cl)c2Cl)c2ccccc2C(C)CC(C)C)s1 (centres unmarked) [7-38, N-(3,4-Dichloroisothiazole-5-carbonyl)-4-(difluoromethyl)-N-{2-(1,3-dimethylbutyl)phenyl}-2-methyl-thiazole-5-carboxamide]	5	5	5	5	5	5	5
Cc1nc(C(F)F)c(C(=O)N(C(=O)c2snnc2C)c2ccccc2CCC(C)C)s1 [7-151]	4	5	5	5	5	5	5
Cc1nc(C(F)F)c(C(=O)N(C(=O)c2snnc2C)c2ccccc2C(C)CC(C)C)s1 (centres unmarked) [7-152]	5	5	5	5	5	5	5
Cc1nn(C)c(Cl)c1C(=O)N(C(=O)c1snnc1C(F)F)c1cccc2c1C(C)OC2(C)C (centres unmarked) [25-117]	–	5	5	5	5	5	5
CCc1nc(C(F)F)c(C(=O)N(C(=O)c2sc(C)nc2C(F)F)c2cccc3c2C(C)OC3(C)C)s1 (centres unmarked) [26-70]	–	5	5	5	5	5	5
Cc1nc(C(F)F)c(C(=O)N(C(=O)c2cc(Cl)c(Cl)s2)c2cccc3c2C(C)OC3(C)C)s1 (centres unmarked) [26-90]	–	5	5	5	5	5	5
Cc1nc(C(F)F)c(C(=O)N(C(=O)c2onc(Cl)c2Cl)c2cccc3c2C(C)OC3(C)C)s1 (centres unmarked) [26-92]	–	5	5	5	5	5	5
CC1OC(C)(C)c2cccc(N(C(=O)c3cccnc3C(F)F)C(=O)c3cccc4nnsc34)c21 (centres unmarked) [27-28]	–	5	5	5	5	5	5
Cc1nc(C(F)F)c(C(=O)N(C(=O)c2cccnc2C(F)F)c2cccc3c2C(C)OC3(C)C)s1 (centres unmarked) [27-36]	–	5	5	5	5	5	5
